Reference: patent publication US9493446B2, “Orexin receptor antagonists which are [ortho bi-(hetero-)aryl]-[2-(meta bi-(hetero-)aryl)-pyrrolidin-1-yl]-methanone derivatives” (Actelion Pharmaceuticals Ltd, priority 2012, dated 2016)
pIC50: −log10 of the molar value. Where two headings read alike, the source gives them in different places.

Tests used:
orexin-1 = orexin-1 (Homo sapiens (Human), UniProt O43613); test: Intracellular calcium measurement (FLIPR), CHO cells expressing human orexin-1 receptor, 3 nM orexin-A; type: cell-based; conditions: read-out: IC50 OX1
Method in brief: (§1)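 Fluo-4 AM-loaded CHO cells; antagonist preincubation 120 min, then 3 nM orexin-A (final) in HBSS/0.1% BSA/20 mM HEPES. FLIPR read at 1 s intervals; peak height vs. agonist-plus-vehicle control → IC50.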

human orexin-2 receptor = human orexin-2 receptor (Homo sapiens (Human), UniProt O43614); test: Intracellular calcium measurement (FLIPR), CHO cells expressing human orexin-2 receptor, 3 nM orexin-A; type: cell-based; conditions: read-out: IC50 OX2
Method in brief: as §1

[1] = CHO cells expressing human orexin-1 receptor, FLIPR, 3 nM orexin-A, geometric mean if determined several times
[2] = CHO cells expressing human orexin-2 receptor, FLIPR, 3 nM orexin-A, geometric mean if determined several times

human orexin-2 receptor, sequence (O43614 whole entry): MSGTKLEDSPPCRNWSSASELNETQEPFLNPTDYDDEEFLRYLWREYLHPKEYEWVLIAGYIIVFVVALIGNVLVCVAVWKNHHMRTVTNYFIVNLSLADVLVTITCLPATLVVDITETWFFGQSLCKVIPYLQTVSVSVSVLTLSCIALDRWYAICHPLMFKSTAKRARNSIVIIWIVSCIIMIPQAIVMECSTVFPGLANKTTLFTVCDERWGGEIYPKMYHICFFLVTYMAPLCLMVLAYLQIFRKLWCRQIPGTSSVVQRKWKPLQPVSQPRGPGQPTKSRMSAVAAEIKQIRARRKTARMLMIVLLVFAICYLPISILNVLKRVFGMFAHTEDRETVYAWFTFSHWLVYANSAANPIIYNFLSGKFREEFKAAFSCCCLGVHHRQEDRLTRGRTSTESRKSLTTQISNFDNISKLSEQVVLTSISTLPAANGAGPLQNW
orexin-1, sequence (O43613 whole entry): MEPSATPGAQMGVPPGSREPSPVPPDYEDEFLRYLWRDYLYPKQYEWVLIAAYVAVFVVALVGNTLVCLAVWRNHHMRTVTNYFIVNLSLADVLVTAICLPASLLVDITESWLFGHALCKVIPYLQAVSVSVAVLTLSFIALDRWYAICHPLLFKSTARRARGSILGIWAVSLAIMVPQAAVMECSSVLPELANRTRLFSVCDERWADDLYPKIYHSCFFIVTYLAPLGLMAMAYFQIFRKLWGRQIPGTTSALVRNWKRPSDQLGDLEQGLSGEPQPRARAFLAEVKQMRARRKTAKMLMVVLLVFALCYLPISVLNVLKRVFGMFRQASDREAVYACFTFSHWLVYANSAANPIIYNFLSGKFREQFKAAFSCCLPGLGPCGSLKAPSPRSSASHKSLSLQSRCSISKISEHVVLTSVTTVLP

pIC50 (orexin-1; [1]) | pIC50 (human orexin-2 receptor; [2]) | SMILES | pIC50 (human orexin-2 receptor) | pIC50 (orexin-1)
7.08 | 7.46 | COc1cc(C(=O)N2CCC[C@H]2c2nnc(-c3ccccc3OC)[nH]2)c(-n2nccn2)cc1C [compound 468, (5-Methoxy-4-methyl-2-[1,2,3]triazol-2-yl-phenyl)-{(S)-2-[5-(2-methoxy-phenyl)-4H-[1,2,4]triazol-3-yl]-pyrrolidin-1-yl}-methanone] | – | –
7.31 | 6.90 | COc1ccccc1-c1nnc([C@@H]2CCCN2C(=O)c2ccc(C)cc2-n2nccn2)[nH]1 [compound 471, {(S)-2-[5-(2-Methoxy-phenyl)-4H-[1,2,4]triazol-3-yl]-pyrrolidin-1-yl}-(4-methyl-2-[1,2,3]triazol-2-yl-phenyl)-methanone] | – | –
7.24 | 8.22 | COc1cc(C(=O)N2CCC[C@H]2c2nnc(-c3cccc(F)c3OC)[nH]2)c(-n2nccn2)cc1C [compound 473, {(S)-2-[5-(3-Fluoro-2-methoxy-phenyl)-4H-[1,2,4]triazol-3-yl]-pyrrolidin-1-yl}-(5-methoxy-4-methyl-2-[1,2,3]triazol-2-yl-phenyl)-methanone] | – | –
7.80 | 8.10 | COc1c(F)cccc1-c1nnc([C@@H]2CCCN2C(=O)c2cc(C)c(C)cc2-n2nccn2)[nH]1 [compound 474, (4,5-Dimethyl-2-[1,2,3]triazol-2-yl-phenyl)-{(S)-2-[5-(3-fluoro-2-methoxy-phenyl)-4H-[1,2,4]triazol-3-yl]-pyrrolidin-1-yl}-methanone] | – | –
7.26 | 7.82 | COc1c(F)cccc1-c1nnc([C@@H]2CCCN2C(=O)c2ccc(C)cc2-n2nccn2)[nH]1 [compound 477, {(S)-2-[5-(3-Fluoro-2-methoxy-phenyl)-4H-[1,2,4]triazol-3-yl]-pyrrolidin-1-yl}-(4-methyl-2-[1,2,3]triazol-2-yl-phenyl)-methanone] | – | –
7.68 | 7.77 | CCOc1ncccc1-c1nnc([C@@H]2CCCN2C(=O)c2cc(OC)c(C)cc2-n2nccn2)[nH]1 [compound 479, {(S)-2-[5-(2-Ethoxy-pyridin-3-yl)-4H-[1,2,4]triazol-3-yl]-pyrrolidin-1-yl}-(5-methoxy-4-methyl-2-[1,2,3]triazol-2-yl-phenyl)-methanone] | – | –
8.10 | 8.05 | CCOc1ncccc1-c1nnc([C@@H]2CCCN2C(=O)c2cc(C)c(C)cc2-n2nccn2)[nH]1 [compound 480, (4,5-Dimethyl-2-[1,2,3]triazol-2-yl-phenyl)-{(S)-2-[5-(2-ethoxy-pyridin-3-yl)-4H-[1,2,4]triazol-3-yl]-pyrrolidin-1-yl}-methanone] | – | –
7.17 | 7.03 | CCOc1ncccc1-c1nnc([C@@H]2CCCN2C(=O)c2ccc(C)cc2-n2nccn2)[nH]1 [compound 482, {(S)-2-[5-(2-Ethoxy-pyridin-3-yl)-4H-[1,2,4]triazol-3-yl]-pyrrolidin-1-yl}-(4-methyl-2-[1,2,3]triazol-2-yl-phenyl)-methanone] | – | –
5.79 | 5.75 | O=C(c1ncsc1-c1ccccc1)N1CCC[C@H]1c1nnc(-c2ccccc2OC(F)(F)F)[nH]1 [compound 483, (5-Phenyl-thiazol-4-yl)-{(S)-2-[5-(2-trifluoromethoxy-phenyl)-4H-[1,2,4]triazol-3-yl]-pyrrolidin-1-yl}-methanone] | – | –
5.30 | 5.52 | O=C(c1ncoc1-c1ccccc1)N1CCC[C@H]1c1nnc(-c2ccccc2OC(F)(F)F)[nH]1 [compound 484, (5-Phenyl-oxazol-4-yl)-{(S)-2-[5-(2-trifluoromethoxy-phenyl)-4H-[1,2,4]triazol-3-yl]-pyrrolidin-1-yl}-methanone] | – | –
5.89 | 5.91 | Cc1cccc(-c2scnc2C(=O)N2CCC[C@H]2c2nnc(-c3ccccc3OC(F)(F)F)[nH]2)c1 [compound 485, (5-m-Tolyl-thiazol-4-yl)-{(S)-2-[5-(2-trifluoromethoxy-phenyl)-4H-[1,2,4]triazol-3-yl]-pyrrolidin-1-yl}-methanone] | – | –
5.63 | 5.50 | Cc1cccc(-c2ocnc2C(=O)N2CCC[C@H]2c2nnc(-c3ccccc3OC(F)(F)F)[nH]2)c1 [compound 486, (5-m-Tolyl-oxazol-4-yl)-{(S)-2-[5-(2-trifluoromethoxy-phenyl)-4H-[1,2,4]triazol-3-yl]-pyrrolidin-1-yl}-methanone] | – | –
7.64 | 8.10 | CCOc1ncccc1-c1nnc([C@@H]2CCCN2C(=O)c2cc(Cl)c(C)cc2-n2nccn2)[nH]1 [compound 487, (5-Chloro-4-methyl-2-[1,2,3]triazol-2-yl-phenyl)-{(S)-2-[5-(2-ethoxy-pyridin-3-yl)-4H-[1,2,4]triazol-3-yl]-pyrrolidin-1-yl}-methanone] | – | –
6.87 | 7.85 | COc1c(Cl)cccc1-c1nnc([C@@H]2CCCN2C(=O)c2cc(C)ccc2-n2nccn2)[nH]1 [compound 488, {(S)-2-[5-(3-Chloro-2-methoxy-phenyl)-4H-[1,2,4]triazol-3-yl]-pyrrolidin-1-yl}-(5-methyl-2-[1,2,3]triazol-2-yl-phenyl)-methanone] | – | –
7.21 | 8.00 | COc1c(Cl)cccc1-c1nnc([C@@H]2CCCN2C(=O)c2ccc(C)cc2-n2nccn2)[nH]1 [compound 489, {(S)-2-[5-(3-Chloro-2-methoxy-phenyl)-4H-[1,2,4]triazol-3-yl]-pyrrolidin-1-yl}-(4-methyl-2-[1,2,3]triazol-2-yl-phenyl)-methanone] | – | –
6.92 | 8.70 | COc1cc(C(=O)N2CCC[C@H]2c2nnc(-c3cccc(Cl)c3OC)[nH]2)c(-n2nccn2)cc1C [compound 490, {(S)-2-[5-(3-Chloro-2-methoxy-phenyl)-4H-[1,2,4]triazol-3-yl]-pyrrolidin-1-yl}-(5-methoxy-4-methyl-2-[1,2,3]triazol-2-yl-phenyl)-methanone] | – | –
7.48 | 9.00 | COc1cc(C(=O)N2CCC[C@H]2c2nnc(-c3cccc(Cl)c3OC)[nH]2)c(-n2nccn2)cc1Cl [compound 491, {(S)-2-[5-(3-Chloro-2-methoxy-phenyl)-4H-[1,2,4]triazol-3-yl]-pyrrolidin-1-yl}-(4-chloro-5-methoxy-2-[1,2,3]triazol-2-yl-phenyl)-methanone] | – | –
7.57 | 8.52 | COc1c(Cl)cccc1-c1nnc([C@@H]2CCCN2C(=O)c2cc(C)c(C)cc2-n2nccn2)[nH]1 [compound 492, {(S)-2-[5-(3-Chloro-2-methoxy-phenyl)-4H-[1,2,4]triazol-3-yl]-pyrrolidin-1-yl}-(4,5-dimethyl-2-[1,2,3]triazol-2-yl-phenyl)-methanone] | – | –
6.07 | 7.57 | Cc1ccc(-n2nccn2)c(C(=O)N2CCC[C@H]2c2nnc(-c3cccc(F)c3C)[nH]2)c1 [compound 494, {(S)-2-[5-(3-Fluoro-2-methyl-phenyl)-4H-[1,2,4]triazol-3-yl]-pyrrolidin-1-yl}-(5-methyl-2-[1,2,3]triazol-2-yl-phenyl)-methanone] | – | –
7.41 | 7.42 | CCOc1ccccc1-c1nnc([C@@H]2CCCN2C(=O)c2cc(C)ccc2-n2nccn2)[nH]1 [compound 495, {(S)-2-[5-(2-Ethoxy-phenyl)-4H-[1,2,4]triazol-3-yl]-pyrrolidin-1-yl}-(5-methyl-2-[1,2,3]triazol-2-yl-phenyl)-methanone] | – | –
7.24 | 7.30 | CCOc1ncccc1-c1nnc([C@@H]2CCCN2C(=O)c2cc(C)ccc2-n2nccn2)[nH]1 [compound 496, {(S)-2-[5-(2-Ethoxy-pyridin-3-yl)-4H-[1,2,4]triazol-3-yl]-pyrrolidin-1-yl}-(5-methyl-2-[1,2,3]triazol-2-yl-phenyl)-methanone] | – | –
7.31 | 7.34 | COc1c(F)cccc1-c1nnc([C@@H]2CCCN2C(=O)c2cc(C)ccc2-n2nccn2)[nH]1 [compound 497, {(S)-2-[5-(3-Fluoro-2-methoxy-phenyl)-4H-[1,2,4]triazol-3-yl]-pyrrolidin-1-yl}-(5-methyl-2-[1,2,3]triazol-2-yl-phenyl)-methanone] | – | –

SMILES | pIC50 (orexin-1; [1]) | pIC50 (human orexin-2 receptor; [2]) | pIC50 (human orexin-2 receptor) | pIC50 (orexin-1)
COc1cc(C(=O)N2CCC[C@H]2c2nnc(-c3ccccc3OC)[nH]2)c(-n2nccn2)cc1Cl [compound 467] | 7.20 | 8.00 | – | –
COc1ccccc1-c1nnc([C@@H]2CCCN2C(=O)c2cc(Cl)c(C)cc2-n2nccn2)[nH]1 [compound 469] | 7.60 | – | 7.35 | –
COc1ccccc1-c1nnc([C@@H]2CCCN2C(=O)c2ccc(Cl)cc2-n2nccn2)[nH]1 [compound 470] | 7.24 | – | 7.51 | –
COc1cc(C(=O)N2CCC[C@H]2c2nnc(-c3cccc(F)c3OC)[nH]2)c(-n2nccn2)cc1Cl [compound 472] | 7.72 | 8.70 | – | –
COc1c(F)cccc1-c1nnc([C@@H]2CCCN2C(=O)c2cc(Cl)c(C)cc2-n2nccn2)[nH]1 [compound 475] | – | 8.70 | – | 7.96
COc1c(F)cccc1-c1nnc([C@@H]2CCCN2C(=O)c2ccc(Cl)cc2-n2nccn2)[nH]1 [compound 476] | 7.57 | 8.52 | – | –
CCOc1ncccc1-c1nnc([C@@H]2CCCN2C(=O)c2cc(OC)c(Cl)cc2-n2nccn2)[nH]1 [compound 478] | 7.57 | 7.96 | – | –
CCOc1ncccc1-c1nnc([C@@H]2CCCN2C(=O)c2ccc(Cl)cc2-n2nccn2)[nH]1 [compound 481] | 7.59 | 7.68 | – | –
Cc1ccc(-n2nccn2)c(C(=O)N2CCC[C@H]2c2nnc(-c3cccc(Cl)c3C)[nH]2)c1 [compound 493] | 5.94 | – | 7.54 | –
Cc1cc(-n2nccn2)c(C(=O)N2CCC[C@H]2c2nnc(-c3ccccc3OC(F)(F)F)[nH]2)cc1Cl [compound 500] | 8.10 | 8.70 | – | –
